Measured values as given in ChEMBL document CHEMBL5223069, “Design, synthesis and biological evaluation of vortioxetine derivatives as new COX-1/2 inhibitors in human monocytes” (Bioorg Med Chem, 2020).
Activity calls are given as the source filed them. The calls are words filed in the database; no cut-off is given here.

Assays:
[1] = tested on: Monocyte; assay: Cytotoxicity against human monocytes assessed as reduction in cell viability at 0.01 to 10 uM incubated for 1 to 6 hrs by MTT assay; type: toxicity, cell-based; conditions: dose lower 0.01 µM, time lower 1 hrs, dose upper 10 µM, time upper 6 hrs
[2] = tested on: Monocyte; assay: Induction of superoxide anion production in human monocytes assessed as increase in reduced cytochrome C level at 0.0025 to 1 uM incubated for 1 hr; type: functional, cell-based; conditions: dose 0.0025-1 µM
[3] = tested on: Monocyte; assay: Induction of TNF-alpha mRNA expression in human monocytes at 1 uM incubated for 1 hr by RT-PCR analysis; type: functional, cell-based
[4] = tested on: Monocyte; assay: Induction of IL-1beta mRNA expression in human monocytes at 1 uM incubated for 1 hr by RT-PCR analysis; type: functional, cell-based
[5] = tested on: Monocyte; assay: Modulation of LPS-induced IL-1beta mRNA expression in human monocytes at 1 uM preincubated for 1 hr followed by LPS stimulation and measured after 30 mins by RT-PCR analysis; type: functional, cell-based; conditions: time 1.5 hrs
[6] = tested on: Monocyte; assay: Modulation of LPS-induced IL-10 mRNA expression in human monocytes at 1 uM preincubated for 1 hr followed by LPS stimulation and measured after 30 mins by RT-PCR analysis; type: functional, cell-based; conditions: time 1.5 hrs
[7] = tested on: Monocyte; assay: Modulation of LPS-induced TNF-alpha mRNA expression in human monocytes at 1 uM preincubated for 1 hr followed by LPS stimulation and measured after 30 mins by RT-PCR analysis; type: functional, cell-based; conditions: time 1.5 hrs
[8] = tested on: Monocyte; assay: Induction of IL-6 mRNA expression in human monocytes at 1 uM incubated for 1 hr by RT-PCR analysis; type: functional, cell-based
[9] = target: T1, Prostaglandin G/H synthase 2 (Homo sapiens) (UniProt P35354); conditions: dose 0.1-50 nM
T1 sequence (whole entry): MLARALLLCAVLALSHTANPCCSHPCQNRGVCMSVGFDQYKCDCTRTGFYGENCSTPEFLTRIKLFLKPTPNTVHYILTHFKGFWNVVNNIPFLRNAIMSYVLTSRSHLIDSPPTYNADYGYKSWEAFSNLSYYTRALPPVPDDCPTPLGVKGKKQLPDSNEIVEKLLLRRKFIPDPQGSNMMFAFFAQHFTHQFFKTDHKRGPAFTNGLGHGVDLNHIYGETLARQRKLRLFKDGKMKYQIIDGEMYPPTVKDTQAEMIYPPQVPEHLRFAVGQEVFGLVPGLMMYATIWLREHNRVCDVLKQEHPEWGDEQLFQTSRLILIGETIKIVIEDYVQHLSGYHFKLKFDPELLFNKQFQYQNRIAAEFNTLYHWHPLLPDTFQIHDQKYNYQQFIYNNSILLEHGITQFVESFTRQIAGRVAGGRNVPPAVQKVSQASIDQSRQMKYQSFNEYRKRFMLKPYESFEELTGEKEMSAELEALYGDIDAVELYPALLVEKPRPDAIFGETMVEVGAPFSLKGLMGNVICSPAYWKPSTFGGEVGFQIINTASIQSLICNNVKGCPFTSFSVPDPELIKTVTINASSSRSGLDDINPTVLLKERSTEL
Description: Inhibition of human COX-2 at 0.1 to 50 nM by spectrophotometer analysis

[10] = tested on: Monocyte; assay: Modulation of LPS-induced IL-6 mRNA expression in human monocytes at 1 uM preincubated for 1 hr followed by LPS stimulation and measured after 30 mins by RT-PCR analysis; type: functional, cell-based; conditions: time 1.5 hrs
[11] = tested on: Monocyte; assay: Induction of IL-10 mRNA expression in human monocytes at 1 uM incubated for 1 hr by RT-PCR analysis; type: functional, cell-based
[12] = tested on: Monocyte; assay: Modulation of LPS-induced IL-6 mRNA expression in human monocytes at 7.5 nM preincubated for 1 hr followed by LPS stimulation and measured after 30 mins by RT-PCR analysis; type: functional, cell-based; conditions: time 1.5 hrs
[13] = tested on: Monocyte; assay: Inhibition of PMA-induced oxidative burst in human monocytes at 0.1 to 50 nM preincubated for 1 hr followed by PMA stimulation and measured after 30 mins relative to control; type: functional; conditions: dose 0.1-50 nM, time 1.5 hrs
[14] = tested on: Monocyte; assay: Induction of IL-10 mRNA expression in human monocytes at 7.5 nM incubated for 1 hr by RT-PCR analysis; type: functional, cell-based
[15] = tested on: Monocyte; assay: Induction of TNF-alpha mRNA expression in human monocytes at 7.5 nM incubated for 1 hr by RT-PCR analysis; type: functional, cell-based
[16] = tested on: Monocyte; assay: Modulation of LPS-induced IL-10 mRNA expression in human monocytes at 7.5 nM preincubated for 1 hr followed by LPS stimulation and measured after 30 mins by RT-PCR analysis; type: functional, cell-based; conditions: time 1.5 hrs
[17] = tested on: Monocyte; assay: Modulation of COX-1 mRNA expression in human monocytes at 7.5 nM incubated for 1 hr by RT-PCR analysis; type: functional, cell-based
[18] = tested on: Monocyte; assay: Induction of IL-6 mRNA expression in human monocytes at 7.5 nM incubated for 1 hr by RT-PCR analysis; type: functional, cell-based
[19] = tested on: Monocyte; assay: Modulation of LPS-induced IL-1beta mRNA expression in human monocytes at 7.5 nM preincubated for 1 hr followed by LPS stimulation and measured after 30 mins by RT-PCR analysis; type: functional, cell-based; conditions: time 1.5 hrs
[20] = target: Prostaglandin G/H synthase 1 (Homo sapiens) (UniProt P23219); assay: Inhibition of human COX-1 at 0.1 to 50 nM by spectrophotometer analysis; conditions: dose 0.1-50 nM
[21] = tested on: Monocyte; assay: Induction of IL-1beta mRNA expression in human monocytes at 7.5 nM incubated for 1 hr by RT-PCR analysis; type: functional, cell-based
[22] = tested on: Monocyte; assay: Modulation of LPS-induced TNF-alpha mRNA expression in human monocytes at 7.5 nM preincubated for 1 hr followed by LPS stimulation and measured after 30 mins by RT-PCR analysis; type: functional, cell-based; conditions: time 1.5 hrs
[23] = tested on: Monocyte; assay: Inhibition of PMA-induced oxidative burst in human monocytes preincubated for 1 hr followed by PMA stimulation and measured after 30 mins; type: functional, cell-based
[24] = tested on: Monocyte; assay: Downregulation of PMA-induced TNF-alpha mRNA expression in human monocytes at 7.5 nM preincubated for 1 hr followed by PMA stimulation and measured after 30 mins by RT-PCR analysis; type: functional, cell-based; conditions: time 1.5 hrs
[25] = tested on: Monocyte; assay: Inhibition of PMA-induced IL-1beta mRNA expression in human monocytes at 7.5 nM preincubated for 1 hr followed by PMA stimulation and measured after 30 mins by RT-PCR analysis; type: functional, cell-based; conditions: time 1.5 hrs
[26] = tested on: Monocyte; assay: Inhibition of PMA-induced COX-2 expression in human monocytes at 7.5 nM preincubated for 1 hr followed by PMA stimulation and measured after 30 mins by RT-PCR analysis; type: functional, cell-based; conditions: time 1.5 hrs
[27] = tested on: Monocyte; assay: Downregulation of PMA-induced IL-6 mRNA expression in human monocytes at 7.5 nM preincubated for 1 hr followed by PMA stimulation and measured after 30 mins by RT-PCR analysis; type: functional, cell-based; conditions: time 1.5 hrs

Chain of Prostaglandin G/H synthase 1 (Homo sapiens) (P23219 whole entry): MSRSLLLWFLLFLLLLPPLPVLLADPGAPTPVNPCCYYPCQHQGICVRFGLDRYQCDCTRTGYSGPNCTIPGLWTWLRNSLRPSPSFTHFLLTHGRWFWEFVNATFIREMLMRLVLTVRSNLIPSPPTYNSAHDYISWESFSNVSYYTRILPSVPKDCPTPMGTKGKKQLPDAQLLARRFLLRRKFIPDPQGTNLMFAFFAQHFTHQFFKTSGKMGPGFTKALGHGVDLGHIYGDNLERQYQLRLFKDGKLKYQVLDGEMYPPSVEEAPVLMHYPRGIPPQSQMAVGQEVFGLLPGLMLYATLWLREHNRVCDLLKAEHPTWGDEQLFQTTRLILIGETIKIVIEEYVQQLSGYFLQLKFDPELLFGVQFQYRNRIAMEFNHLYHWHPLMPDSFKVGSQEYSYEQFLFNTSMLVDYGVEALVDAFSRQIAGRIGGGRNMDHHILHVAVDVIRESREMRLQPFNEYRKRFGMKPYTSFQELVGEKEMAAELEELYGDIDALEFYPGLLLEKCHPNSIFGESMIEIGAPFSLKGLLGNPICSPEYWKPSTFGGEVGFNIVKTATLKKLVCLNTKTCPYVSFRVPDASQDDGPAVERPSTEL

| Compound | Activity [1] | Activity [2] | Activity [12] | inhibition (INH) [13] [%] | Activity [14] | Activity [15] | Activity [16] | Activity [17] | Activity [18] | Activity [19] | inhibition [20] | Activity [21] | Activity [22] | IC50 [23] [nM] | also measured |
| --- | --- | --- | --- | --- | --- | --- | --- | --- | --- | --- | --- | --- | --- | --- | --- |
| Cc1ccc(Sc2ccccc2N2CCN(S(C)(=O)=O)CC2)c(C)c1 | Non-Toxic | inactive | – | – | – | – | – | – | – | – | – | – | – | – | – |
| Cc1ccc(Sc2ccccc2N2CCN(Cc3ccc(Cl)cc3)CC2)c(C)c1 | Non-Toxic | inactive | – | – | – | – | – | – | – | – | – | – | – | – | – |
| CS(=O)(=O)c1ccc(C2=C(c3ccccc3)C(=O)OC2)cc1 | – | – | – | – | – | – | – | – | – | – | – | – | – | – | Activity [3]: inactive; Activity [4]: inactive; Activity [5]: inactive; Activity [6]: inactive; Activity [7]: inactive; Activity [8]: inactive; inhibition [9]: Active; Activity [10]: inactive; Activity [11]: inactive |
| Cc1ccc(S(=O)(=O)N2CCN(c3ccccc3Sc3ccc(C)cc3C)CC2)cc1 | Non-Toxic | inactive | – | – | – | – | – | – | – | – | – | – | – | – | – |
| COc1ccc2c(c1)c(CC(=O)O)c(C)n2C(=O)c1ccc(Cl)cc1 | – | – | – | – | – | – | – | – | – | – | – | – | – | – | Activity [3]: inactive; Activity [4]: inactive; Activity [5]: inactive; Activity [6]: inactive; Activity [7]: inactive; Activity [8]: inactive; Activity [10]: inactive; Activity [11]: inactive |
| Cc1ccc(Sc2ccccc2N2CCN(CC3CCCC3)CC2)c(C)c1 | Non-Toxic | inactive | inactive | 70 | inactive | inactive | inactive | inactive | inactive | inactive | Active | inactive | inactive | 2.7 | inhibition [9]: Active |
| Cc1ccc(Sc2ccccc2N2CCNCC2)c(C)c1 [VORTIOXETINE] | Non-Toxic | inactive | inactive | 90 | inactive | inactive | inactive | inactive | inactive | inactive | – | inactive | inactive | 2.9 | Activity [24]: Active; inhibition [25]: Active |
| CC(=O)N1CCN(c2ccccc2Sc2ccc(C)cc2C)CC1 | Non-Toxic | inactive | – | – | – | – | – | – | – | – | – | – | – | – | – |
| Cc1ccc(Sc2ccccc2N2CCN(CCO)CC2)c(C)c1 | Non-Toxic | inactive | – | – | – | – | – | – | – | – | – | – | – | – | – |
| Cc1ccc(Sc2ccccc2N2CCN(Cc3ccccc3C(F)(F)F)CC2)c(C)c1 | Non-Toxic | inactive | inactive | 80 | inactive | inactive | inactive | inactive | inactive | inactive | Active | inactive | inactive | 6.3 | – |
| Cc1ccc(Sc2ccccc2N2CCN(CC(=O)O)CC2)c(C)c1 | Non-Toxic | inactive | inactive | 90 | Active | inactive | inactive | inactive | inactive | inactive | Active | inactive | inactive | 0.35 | – |
| Cc1ccc(Sc2ccccc2N2CCN(Cc3ccccc3F)CC2)c(C)c1 | Non-Toxic | inactive | inactive | 70 | inactive | inactive | Active | inactive | inactive | inactive | Active | inactive | inactive | 6.5 | inhibition [26]: Active; Activity [27]: Active; inhibition [9]: Active |
| CCN1CCN(c2ccccc2Sc2ccc(C)cc2C)CC1 | Non-Toxic | inactive | – | – | – | – | – | – | – | – | – | – | – | – | – |
